Data from PubChem BioAssay AID222 (DTP/NCI, 2004).
“And” between values parts separate entries of the source, which are not always exact repeats. Equal values may be shown once. Toxic doses and inconclusive results are not listed. Rule for the calls: active = survival T/C of 150% or more; inactive = T/C below 125% in these data.

Test system: C57BL/6 mice, intracerebral ependymoblastoma, median survival T/C
Assay: NCI In Vivo Anticancer Drug Screen. Data for tumor model Ependymoblastoma (intracerebral) in C57BL/6 mice
Details: endpoint: median survival time, higher = longer survival
Description: The antitumor activity of compounds was measured in mice bearing transplantable tumors. Survival or tumor size were measured and the results are expressed as the measurement made in the treated group (T) divided by the measurement made in the vehicle treated control group (C). The tumor model used in this assay is Ependymoblastoma (intracerebral) in C57BL/6 mice

Measured: T/C

Cc1[nH]c(=O)[nH]c(=O)c1N(CCF)CCCl
inactive: dose: 2.0 mg/kg/injection, schedule: Q01DX005 (ip), vehicle: saline with Tween-80 96 % of control and 104 % of control | dose: 4.0 mg/kg/injection, schedule: Q01DX005 (ip), vehicle: saline with Tween-80 97 % of control and 105 % of control | dose: 4.0 mg/kg/injection, schedule: Q## X006 (ip), vehicle: Klucel (hydroxypropylcellulose) (HPC) 111 % of control | dose: 8.0 mg/kg/injection, schedule: Q01DX005 (ip), vehicle: saline with Tween-80 97 % of control and 106 % of control | dose: 8.0 mg/kg/injection, schedule: Q## X006 (ip), vehicle: Klucel (hydroxypropylcellulose) (HPC) 106 % of control | dose: 8.0 mg/kg/injection, schedule: Q#A X002 (ip), vehicle: Klucel (hydroxypropylcellulose) (HPC) 101 % of control | dose: 16.0 mg/kg/injection, schedule: Q01DX001 (ip), vehicle: Klucel (hydroxypropylcellulose) (HPC) 93 % of control and 102 % of control | dose: 16.0 mg/kg/injection, schedule: Q01DX005 (ip), vehicle: saline with Tween-80 108 % of control and 109 % of control | dose: 16.0 mg/kg/injection, schedule: Q01DX005 (oral), vehicle: Klucel (hydroxypropylcellulose) (HPC) 111 % of control | dose: 16.0 mg/kg/injection, schedule: Q#A X002 (ip), vehicle: Klucel (hydroxypropylcellulose) (HPC) 99 % of control | dose: 32.0 mg/kg/injection, schedule: Q01DX001 (ip), vehicle: Klucel (hydroxypropylcellulose) (HPC) 92 % of control and 101 % of control and 105 % of control | dose: 32.0 mg/kg/injection, schedule: Q01DX005 (oral), vehicle: Klucel (hydroxypropylcellulose) (HPC) 94 % of control | dose: 32.0 mg/kg/injection, schedule: Q#A X002 (ip), vehicle: Klucel (hydroxypropylcellulose) (HPC) 111 % of control | dose: 64.0 mg/kg/injection, schedule: Q01DX001 (ip), vehicle: Klucel (hydroxypropylcellulose) (HPC) 101 % of control and 114 % of control | dose: 64.0 mg/kg/injection, schedule: Q01DX001 (oral), vehicle: Klucel (hydroxypropylcellulose) (HPC) 96 % of control and 107 % of control and 111 % of control | dose: 128.0 mg/kg/injection, schedule: Q01DX001 (ip), vehicle: Klucel (hydroxypropylcellulose) (HPC) 87 % of control | dose: 128.0 mg/kg/injection, schedule: Q01DX001 (oral), vehicle: Klucel (hydroxypropylcellulose) (HPC) 90 % of control and 111 % of control | dose: 256.0 mg/kg/injection, schedule: Q01DX001 (oral), vehicle: Klucel (hydroxypropylcellulose) (HPC) 107 % of control and 86 % of control | dose: 512.0 mg/kg/injection, schedule: Q01DX001 (oral), vehicle: Klucel (hydroxypropylcellulose) (HPC) 115 % of control

NNC(=O)c1ccncc1
inactive: dose: 28.75 mg/kg/injection, schedule: Q01DX005 (ip), vehicle: saline 94 % of control | dose: 57.5 mg/kg/injection, schedule: Q01DX005 (ip), vehicle: saline 102 % of control | dose: 115.0 mg/kg/injection, schedule: Q01DX005 (ip), vehicle: saline 105 % of control

O=c1[nH]cc(F)c(=O)[nH]1
inactive: dose: 2.0 mg/kg/injection, schedule: Q01DX005 (ip), vehicle: saline 113 % of control | dose: 2.5 mg/kg/injection, schedule: Q01DX005 (ip), vehicle: saline 101 % of control | dose: 4.0 mg/kg/injection, schedule: Q01DX005 (ip), vehicle: saline 108 % of control | dose: 5.0 mg/kg/injection, schedule: Q01DX005 (ip), vehicle: saline 94 % of control | dose: 8.0 mg/kg/injection, schedule: Q01DX005 (ip), vehicle: saline 97 % of control | dose: 10.0 mg/kg/injection, schedule: Q01DX005 (ip), vehicle: saline 97 % of control | dose: 16.0 mg/kg/injection, schedule: Q01DX005 (ip), vehicle: saline 106 % of control | dose: 20.0 mg/kg/injection, schedule: Q01DX005 (ip), vehicle: saline 95 % of control | dose: 32.0 mg/kg/injection, schedule: Q01DX005 (ip), vehicle: saline 106 % of control

OC(CCl)CN1CC[N+]2(CC1)CC[N+]1(CCN(CC(O)CCl)CC1)CC2 (stereo not drawn)
inactive: dose: 40.0 mg/kg/injection, schedule: Q01DX005 (ip), vehicle: saline 109 % of control and 117 % of control

COc1cc2c(c(OC)c1OC)-c1ccc(OC)c(=O)cc1[C@@H](NC(C)=O)CC2
inactive: dose: 0.05 mg/kg/injection, schedule: Q01DX005 (ip), vehicle: saline 104 % of control | dose: 0.1 mg/kg/injection, schedule: Q01DX005 (ip), vehicle: saline 98 % of control | dose: 0.2 mg/kg/injection, schedule: Q01DX005 (ip), vehicle: saline 108 % of control | dose: 0.4 mg/kg/injection, schedule: Q01DX005 (ip), vehicle: saline 90 % of control | dose: 0.8 mg/kg/injection, schedule: Q01DX005 (ip), vehicle: saline 103 % of control

Nc1ncnc2nc[nH]c12
inactive: dose: 128.0 mg/kg/injection, schedule: Q01DX005 (ip), vehicle: saline with Tween-80 92 % of control
